The values that follow come from paper PMC11025081, “Design, Synthesis, and In Silico and In Vitro Cytotoxic Activities of Novel Isoniazid–Hydrazone Analogues Linked to Fluorinated Sulfonate Esters” (ACS Omega, 2024).

A word on the IC50: it is the concentration at which inhibition is half-maximal. A lower IC50 goes with greater potency. The melting point is the temperature of the solid-liquid transition.

The structures appear in SMILES notation.

Data set [1] relates to human prostate cancer cells (PC3). Description: MTT cytotoxic activity assay, PC3 cells, 72 h. It counts as cell-based. The text has this: (§1) Cancer treatment often damages healthy cells and tissues. Every treatment has important and diverse side effects; these depend mainly on the type and extent of treatment, are not the same for everyone, and may even vary from one treatment to another in the same person. While most cancer patients receiving chemotherapy lose hair during the treatment process, other side effects vary depending on the type of drug. Therefore, the discovery of new drugs with side effects lower than those of the chemotherapeutic agents used in treatment has become an important focus of cancer research. In the present study, the cytotoxic activities of new compounds (1–18) and cisplatin were tested in prostate and colon cancer cell lines and healthy embryonic kidney cell line for 72 h.
(§2) The PC3 and DLD-1 cell lines were purchased from the American Type Culture Collection. The PC3, DLD-1, and HEK-293T cells were seeded in 96-well plates at a density of 5 × 10^3 cells/well for cytotoxic activity studies.[36]−[38] Cells were exposed to compounds at concentrations of 300, 150, 75, and 37.5 μM after 24 h. The 50 μL (5 mg/mL) amount of MTT stock solution was added to wells after 72 h and incubated for a further 2 h. The absorbance values were measured by using an Epoch 2 ELISA plate reader at 590 nm.
In general terms: Tetrazolium assays rely on reduction of a dye to a coloured formazan, in cell work by metabolically active cells.

In data set [2] the test system is human colon cancer cells (DLD-1). Nature of the data set: MTT cytotoxic activity assay, DLD-1 cells, 72 h. It counts as cell-based. The following applies: DLD-1 cell line.
Excerpt: as §1, §2

Data set [3] deals with human embryonic kidney cells (HEK-293T). Description: MTT cytotoxic activity assay, HEK-293T healthy cells, 72 h. It counts as cell-based. The following applies: HEK-293T healthy cell line.
Excerpt: as §1
To determine whether all of the prepared substances had selectivity for healthy cells, the compounds were tested against HEK-293T cells at the same concentrations as those applied to cancer cells. […] Changes in the cell viability ratio depending on concentrations of the tested compounds (1–18) and cisplatin are given below (Figure 3).
as §2

[4] abbreviates: Homo sapiens, PC-3, PC3 cell line.

Consider `O=Cc1ccccc1OS(=O)(=O)c1ccc(C(F)(F)F)cc1` [Compound 1], for which the melting point fell in the range of 83 to 84 °C. Moreover, in data set [1] (setting [4]), the IC50 was 14.3 ± 1.87 µM. In addition, half-maximal inhibition in data set [2] (Homo sapiens) (IC50) was put at 22.5 ± 2.6 µM. In data set [3], the IC50 was 19.5 ± 1.57 µM.
As for `O=Cc1cccc(OS(=O)(=O)c2ccc(C(F)(F)F)cc2)c1` [Compound 2], the melting point lay within 79 to 80 °C. Further, it took 24.5 ± 2.09 µM to reach half-maximal inhibition in data set [1] (setting [4]) (IC50). Besides, the IC50 in data set [2] (Homo sapiens) was determined as 41.2 ± 3.94 µM. The same molecule came in with an IC50 in data set [3] of 60 ± 4.81 µM.
`O=Cc1ccc(OS(=O)(=O)c2ccc(C(F)(F)F)cc2)cc1` [Compound 3] registered a melting point of 110 to 111 °C. The molecule further came in with an IC50 in data set [1] (setting [4]) of 76.6 ± 3.55 µM. The same molecule displayed an IC50 in data set [2] (Homo sapiens) of 115 ± 5.78 µM. In data set [3], this molecule registered an IC50 of 89.26 ± 0.17 µM.
On to `COc1cccc(C=O)c1OS(=O)(=O)c1ccc(C(F)(F)F)cc1` [Compound 4], for which the IC50 in data set [1] (setting [4]) was determined as 10.3 ± 0.8 µM; in data set [2] (Homo sapiens), 13.5 ± 1.64 µM; in data set [3] it was 35.3 ± 1.15 µM.
As for `COc1ccc(C=O)c(OS(=O)(=O)c2ccc(C(F)(F)F)cc2)c1` [Compound 5], the IC50 was 11.2 ± 0.94 µM in data set [1] (setting [4]), 19.3 ± 2.71 µM in data set [2] (Homo sapiens) and 38.6 ± 2.81 µM in data set [3].
For `COc1ccc(C=O)cc1OS(=O)(=O)c1ccc(C(F)(F)F)cc1` [Compound 6], the IC50 in data set [1] (setting [4]) worked out at 16 ± 1.71 µM; in data set [2] (Homo sapiens), 17.8 ± 0.53 µM; in data set [3], 91 ± 2.26 µM.
Turning to `COc1cc(C=O)ccc1OS(=O)(=O)c1ccc(C(F)(F)F)cc1` [Compound 7], the melting point lay within 112 to 113 °C. In data set [1] (setting [4]), this molecule registered an IC50 of 71.6 ± 3.46 µM. This molecule showed a concentration for half-maximal inhibition (IC50) in data set [2] (Homo sapiens) of 74 ± 4.34 µM. Moreover, the IC50 in data set [3] was determined as 110 ± 5.97 µM.
`CCN(CC)c1ccc(C=O)c(OS(=O)(=O)c2ccc(C(F)(F)F)cc2)c1` [Compound 8] yielded a melting point of 114 to 116 °C. In data set [1] (setting [4]), this molecule displayed an IC50 of 28.8 ± 1.85 µM. In addition, half-maximal inhibition in data set [2] (Homo sapiens) (IC50) required 24.7 ± 1.9 µM. Further, the 50% inhibitory concentration (IC50) in data set [3] amounted to 40.8 ± 5.68 µM.
Consider `O=Cc1c(OS(=O)(=O)c2ccc(C(F)(F)F)cc2)ccc2ccccc12` [Compound 9], for which the melting point lay in the range of 129 to 131 °C. This molecule displayed an IC50 in data set [1] (setting [4]) of 14.8 ± 1.03 µM. Also, inhibition in data set [2] (Homo sapiens) was half-maximal at 17.6 ± 0.62 µM (IC50). This molecule yielded an IC50 in data set [3] of 34.7 ± 2.21 µM.
As for `O=C(NN=Cc1ccccc1OS(=O)(=O)c1ccc(C(F)(F)F)cc1)c1ccncc1` [Compound 10], the IC50 in data set [1] (setting [4]) turned out to be 139 ± 5.82 µM; in data set [2] (Homo sapiens), 17.9 ± 0.51 µM; in data set [3], 52.2 ± 3.52 µM.
Molecule `O=C(NN=Cc1cccc(OS(=O)(=O)c2ccc(C(F)(F)F)cc2)c1)c1ccncc1` [Compound 11] gave a melting point of 189 to 190 °C. In data set [1] (setting [4]), this molecule came in with an IC50 of 80.1 ± 4.59 µM. Besides, in data set [2] (Homo sapiens), the IC50 came to 144 ± 4.18 µM. The IC50 in data set [3] was 245 ± 5.79 µM.
As to `O=C(N/N=C/c1ccc(OS(=O)(=O)c2ccc(C(F)(F)F)cc2)cc1)c1ccncc1` [Compound 12], the melting point was 208 to 209 °C. The IC50 in data set [1] (setting [4]) is greater than 300 µM. Also, the IC50 in data set [2] (Homo sapiens) is greater than 300 µM. The same molecule had an IC50 in data set [3] greater than 300 µM.
For the molecule `COc1cccc(C=NNC(=O)c2ccncc2)c1OS(=O)(=O)c1ccc(C(F)(F)F)cc1` [Compound 13], the melting point was in the range of 198 to 199 °C. The molecule also came in with an IC50 in data set [1] (setting [4]) of 214 ± 6.48 µM. Also, 78.8 ± 3.15 µM corresponded to half-maximal inhibition in data set [2] (Homo sapiens) (IC50). The IC50 in data set [3] was greater than 300 µM.
Take `COc1ccc(C=NNC(=O)c2ccncc2)c(OS(=O)(=O)c2ccc(C(F)(F)F)cc2)c1` [Compound 14]: the melting point lay within 180 to 181 °C. Also, in data set [1] (setting [4]), 16.5 ± 1.54 µM corresponded to half-maximal inhibition (IC50). The molecule further came in with an IC50 in data set [2] (Homo sapiens) of 28.4 ± 2.81 µM. The molecule further returned a half-maximal inhibitory concentration (IC50) in data set [3] of 26.6 ± 2.62 µM.
For `COc1ccc(C=NNC(=O)c2ccncc2)cc1OS(=O)(=O)c1ccc(C(F)(F)F)cc1` [Compound 15], the IC50 amounted to 97.4 ± 4.85 µM in data set [1] (setting [4]), 63.8 ± 5.32 µM in data set [2] (Homo sapiens) and 166 ± 6.71 µM in data set [3].
On to `COc1cc(C=NNC(=O)c2ccncc2)ccc1OS(=O)(=O)c1ccc(C(F)(F)F)cc1` [Compound 16], for which the melting point is 192 to 193 °C. The molecule further had an IC50 in data set [1] (setting [4]) of 121 ± 5.71 µM. In data set [2] (Homo sapiens), this molecule came in with a concentration for half-maximal inhibition (IC50) of 72.8 ± 3.13 µM. In data set [3], this molecule returned an IC50 of 183 ± 2.72 µM.
In turn, `CCN(CC)c1ccc(C=NNC(=O)c2ccncc2)c(OS(=O)(=O)c2ccc(C(F)(F)F)cc2)c1` [Compound 17] gave a melting point of 141 to 142 °C. Moreover, the IC50 in data set [1] (setting [4]) is 57.6 ± 1.83 µM. This molecule also returned an IC50 in data set [2] (Homo sapiens) of 110 ± 5.09 µM. The molecule further gave an IC50 in data set [3] of 132 ± 5.46 µM.
For `O=C(NN=Cc1c(OS(=O)(=O)c2ccc(C(F)(F)F)cc2)ccc2ccccc12)c1ccncc1` [Compound 18], the IC50 was determined as 17.05 ± 0.09 µM in data set [1] (setting [4]), 37.4 ± 4.63 µM in data set [2] (Homo sapiens) and 15.75 ± 0.11 µM in data set [3].
Consider `N.N.[Cl][Pt][Cl]` [cisplatin, reference compound], for which the IC50 in data set [1] (PC3 cell line) came to 8.8 ± 0.51 µM; in data set [2] it was 26.7 ± 2.78 µM.
